Marks after values point to notes of the source that are not given here.
Key:
Format in all cases: cell-based
wild-type CqsS = wild-type CqsS (Vibrio cholerae serotype O1, UniProt Q9KM66); conditions: for QS activity (in words): tested up to 50,000 nM; for maximal % response at the maximum concentration tested: at 50,000 nM, with respect to CAI-1 = 100%
CqsS C170A = CqsS C170A (Vibrio cholerae serotype O1, UniProt Q9KM66, C170A); test: Light-based agonist bioassay with CqsS C170A mutant strain
CqsS C170Y = CqsS C170Y (Vibrio cholerae serotype O1, UniProt Q9KM66, C170Y); test: Light-based agonist bioassay with CqsS C170Y mutant strain; conditions: at 50,000 nM

SMILES: CCCCC/C=C/COC(=O)C(O)CC (stereo not shown) [compound 26, (E)-Oct-2-en-1-yl 2-hydroxybutanoate]
- fold more active (lower EC50) than C8-ester-CAI-1 (9) (wild-type CqsS): 3 fold

SMILES: CCCCCCCCCOC(=O)C(O)CC (stereo not shown) [compound 20, Nonyl 2-hydroxybutanoate]
- fold more active (lower EC50) than C8-ester-CAI-1 (9) (wild-type CqsS): 2 fold

SMILES: CCC(O)C(=O)O (stereo not shown) [2-hydroxybutyric acid]
- QS activity (in words) (wild-type CqsS): no QS activity

SMILES: CCCCCCCCCC(=O)[C@@H](O)CC [compound 1, S-3-hydroxytridecan-4-one, reference compound]
- % Response (percent maximal bioluminescence) (CqsS C170A; with respect to CAI-1 set at 100%): 100±44%
- maximal % response at the maximum concentration tested (CqsS C170Y): 20 ^c %

SMILES: CCC(O)C(=O)OCCCCCc1ccccc1 (stereo not shown) [compound 38, 5-Phenylpentyl 2-hydroxybutyrate]
- maximal % response at the maximum concentration tested (CqsS C170Y): 19 ^c %

SMILES: CCCCCCCCOC(=O)C(O)CC (stereo not shown) [compound 9, Octyl 2-hydroxybutanoate]
- maximal % response at the maximum concentration tested (CqsS C170Y): 66 ^c %

SMILES: CCOCCOCCOC(=O)C(O)CC (stereo not shown) [compound 23, 2-Hydroxy-2-(2-ethoxyethoxy)ethylbutanoate]
- maximal % response at the maximum concentration tested (wild-type CqsS): 31 ^c %
- QS activity (in words) (wild-type CqsS): only minimal QS activity

SMILES: CCCCCOCCOC(=O)C(O)CC (stereo not shown) [compound 22, 2-(Pentyloxy)ethyl 2-hydroxybutanoate]
- fold less active (higher EC50) than C8-ester-CAI-1 (9) (wild-type CqsS): > 13 fold

SMILES: CCCCCCCCO [1-octanol]
- QS activity (in words) (wild-type CqsS): no QS activity

SMILES: CCCCCCOCCOC(=O)C(O)CC (stereo not shown) [compound 24, 2-(Hexyloxy)ethyl 2-hydroxybutanoate]
- fold less active (higher EC50) than C8-ester-CAI-1 (9) (wild-type CqsS): > 13 fold

SMILES: CCCC/C=C/CCOC(=O)C(O)CC (stereo not shown) [compound 29, (E)-Oct-3-en-1-yl 2-hydroxybutanoate]
- fold less active (higher EC50) than C8-ester-CAI-1 (9) (wild-type CqsS): > 4 fold

SMILES: CCc1ccccc1CCCOC(=O)C(O)CC (stereo not shown) [compound 49, 3-(o-Ethyl-phenyl)propyl 2-hydroxybutyrate]
- fold less active (higher EC50) than C8-ester-CAI-1 (9) (wild-type CqsS): > 278 fold
- maximal % response at the maximum concentration tested (wild-type CqsS): 28 ^c %
- QS activity (in words) (wild-type CqsS): very weak responses

SMILES: CCCCc1ccccc1COC(=O)C(O)CC (stereo not shown) [compound 44, 1-(o-Butyl-phenyl)methyl 2-hydroxybutyrate]
- fold less active (higher EC50) than C8-ester-CAI-1 (9) (wild-type CqsS): > 278 fold
- QS activity (in words) (wild-type CqsS): very weak responses

SMILES: CCCCCCCOC(=O)C(O)CC (stereo not shown) [compound 19, Heptyl 2-hydroxybutanoate]
- fold less active (higher EC50) than C8-ester-CAI-1 (9) (wild-type CqsS): 2 fold

SMILES: CCCCOC(=O)C(O)CC (stereo not shown) [compound 17, Butyl 2-hydroxybutanoate]
- maximal % response at the maximum concentration tested (wild-type CqsS): 23 ^c %
- QS activity (in words) (wild-type CqsS): nearly complete loss of QS activity

SMILES: CCCCCCOC(=O)C(O)CC (stereo not shown) [compound 18, Hexyl 2-hydroxybutanoate]
- fold less active (higher EC50) than C8-ester-CAI-1 (9) (wild-type CqsS): greater than 4 fold

SMILES: CCCCCc1cccc(COC(=O)C(O)CC)c1 (stereo not shown) [compound 46, 1-(m-Pentyl-phenyl)methyl 2-hydroxybutyrate]
- fold less active (higher EC50) than C8-ester-CAI-1 (9) (wild-type CqsS): > 9 fold

SMILES: CCCCCCCCCCOC(=O)C(O)CC (stereo not shown) [compound 21, Decyl 2-hydroxybutanoate]
- fold less active (higher EC50) than C8-ester-CAI-1 (9) (wild-type CqsS): greater than 4 fold

SMILES: CCC(O)C(=O)OCCCCc1ccccc1 (stereo not shown) [compound 37, 4-Phenylbutyl 2-hydroxybutyrate]
- maximal % response at the maximum concentration tested (CqsS C170A; at 50,000 nM): 16 ^c %
- maximal % response at the maximum concentration tested (CqsS C170Y): 22 ^c %

SMILES: CCC/C=C/CCCOC(=O)C(O)CC (stereo not shown) [compound 32, (E)-Oct-4-enyl 2-hydroxybutanoate]
- fold less active (higher EC50) than C8-ester-CAI-1 (9) (wild-type CqsS): 1.5 fold

SMILES: CC/C=C/CCCCOC(=O)C(O)CC (stereo not shown) [compound 34, (E)-Oct-5-enyl 2-hydroxybutanoate]
- fold less active (higher EC50) than C8-ester-CAI-1 (9) (wild-type CqsS): > 4 fold
